The values that follow are results of earlier work, collected in patent US12220416B2, “Methylene-tetrahydrofolate reductase isoform-based biomarker and method of use thereof” (RUSH UNIVERSITY MEDICAL CENTER, priority 2017, dated 2025).

For this data set the following is noted: RA patients on MTX therapy; ADEs provoke discontinuation of MTX therapy; ref [38].

On to `CN(Cc1cnc2nc(N)nc(N)c2n1)c1ccc(C(=O)N[C@@H](CCC(=O)O)C(=O)O)cc1` [MTX, Methotrexate], for which the “RA patients developing MTX-related adverse drug events (ADEs)” value is “approximately 30%”.
